Reference: ChEMBL document CHEMBL5653593 (Clin Sci (Lond), 2002)

Columns and labels:
[1] = target: T1, Endothelin receptor type B (Homo sapiens, UniProt P24530); test: Binding affinity to human ETB receptor transfected in CHO cell membrane assessed as inhibition constant incubated for 3 hrs by 125I-labelled ET-1 saturation binding assay; type: cell membranes
T1 sequence (P24530 whole entry): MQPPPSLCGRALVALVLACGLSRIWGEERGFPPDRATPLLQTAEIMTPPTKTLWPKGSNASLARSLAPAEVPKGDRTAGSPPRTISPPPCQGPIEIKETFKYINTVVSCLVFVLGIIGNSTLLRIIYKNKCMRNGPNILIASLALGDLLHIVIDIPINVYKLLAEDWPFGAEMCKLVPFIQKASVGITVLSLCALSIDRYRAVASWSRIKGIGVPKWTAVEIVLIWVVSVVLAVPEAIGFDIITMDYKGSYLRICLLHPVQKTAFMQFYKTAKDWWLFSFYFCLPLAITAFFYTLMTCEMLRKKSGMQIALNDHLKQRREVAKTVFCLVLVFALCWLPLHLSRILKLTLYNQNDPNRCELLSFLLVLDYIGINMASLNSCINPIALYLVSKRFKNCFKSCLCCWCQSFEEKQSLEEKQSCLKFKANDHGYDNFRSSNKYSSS

[2] = target: T1, Endothelin receptor type B; test: Antagonist activity at human ETB receptor transfected in CHO cell membrane […]; type: functional, cell membranes
Endothelin-1 receptor [3] = target: T2, Endothelin-1 receptor (Rattus norvegicus, UniProt P26684); test: Antagonist activity at ETA receptor in rat MMQ cells assessed as inhibition of phosphatidylinositol hydrolysis by myo-[3H]inositol radioactivity based assay; type: functional, cell-based
T2 sequence (P26684 whole entry): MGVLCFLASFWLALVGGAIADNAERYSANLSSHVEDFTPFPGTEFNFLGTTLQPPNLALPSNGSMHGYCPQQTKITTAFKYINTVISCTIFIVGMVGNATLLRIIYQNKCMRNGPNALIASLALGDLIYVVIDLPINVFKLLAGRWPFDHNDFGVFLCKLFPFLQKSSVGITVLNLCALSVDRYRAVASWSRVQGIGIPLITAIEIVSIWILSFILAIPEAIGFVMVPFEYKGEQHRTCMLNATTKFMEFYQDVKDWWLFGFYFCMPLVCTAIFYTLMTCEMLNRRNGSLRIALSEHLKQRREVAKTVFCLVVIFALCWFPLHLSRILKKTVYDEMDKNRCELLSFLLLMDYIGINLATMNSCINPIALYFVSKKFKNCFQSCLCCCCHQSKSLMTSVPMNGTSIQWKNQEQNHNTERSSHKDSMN

Endothelin-1 receptor [4] = target: T3, Endothelin-1 receptor (Homo sapiens, UniProt P25101); test: Binding affinity to human ETA receptor transfected in CHO cell membrane assessed as inhibition constant incubated for 3 hrs by 125I-labelled ET-1 saturation binding assay; type: cell membranes
T3 sequence (P25101 whole entry): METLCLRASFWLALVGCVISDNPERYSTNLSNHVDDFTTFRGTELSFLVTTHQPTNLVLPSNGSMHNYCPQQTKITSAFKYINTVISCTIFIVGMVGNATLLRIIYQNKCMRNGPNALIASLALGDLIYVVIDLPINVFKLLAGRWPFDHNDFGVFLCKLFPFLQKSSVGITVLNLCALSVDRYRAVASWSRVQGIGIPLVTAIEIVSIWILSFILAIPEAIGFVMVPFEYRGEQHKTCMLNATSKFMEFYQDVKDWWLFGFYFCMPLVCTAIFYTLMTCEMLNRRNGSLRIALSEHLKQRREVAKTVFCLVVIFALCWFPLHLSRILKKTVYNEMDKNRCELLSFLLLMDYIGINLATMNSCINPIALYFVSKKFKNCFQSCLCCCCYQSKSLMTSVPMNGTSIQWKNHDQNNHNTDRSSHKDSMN

Endothelin-1 receptor [5] = target: T3, Endothelin-1 receptor; test: Antagonist activity at human ETA receptor transfected in CHO cell membrane assessed as inhibition of 125I-labelled ET-1 binding to receptor incubated for 3 hrs by competition binding assay; type: functional, cell membranes

Row | SMILES | Ki [1] | IC50 [2] | IC50 (Endothelin-1 receptor [3]) | Ki (Endothelin-1 receptor [4]) | IC50 (Endothelin-1 receptor [5])
1 | CCCCCS(=O)(=O)N(CCC)CCN1C[C@H](c2ccc3c(c2)OCO3)[C@@H](C(=O)O)[C@@H]1c1ccc(OC)c(F)c1 | 1.23 nM | 1.12 nM |  |  | 
2 | CCCOc1ccc([C@H]2[C@H](C(=O)O)[C@@H](c3ccc4c(c3)OCO4)CN2CC(=O)Nc2c(CC)cccc2CC)cc1 [A-192621] |  | 0.59 nM | ≥ 700 nM | 5600 nM | 4280 nM
3 | CCCCN(CCCC)C(=O)CN1C[C@H](c2cc(OC)c3c(c2)OCO3)[C@@H](C(=O)O)[C@@H]1CC(C)(C)CCC [ABT-546] |  |  | 0.59 nM |  | 
